We go through three molecules from patent US4068074A, “Cephalosporin derivatives having at the 3-position of the cephem ring a heterocyclic thiomethyl group with a carboxy or sulfo group and at the 7-position of the cephem ring an α-heterocylic acylaminophenyl-acetamide group” (priority 1974, dated 1978).

One data set has as its system Salmonella enteritidis. The experiment in a line: MIC against bacteria (Table I), strain (10). In kind it is cell-based. As to conditions: Salmonella enterica. The source says: (§1) Now, for illustrating the excellent pharmacological effects of the compounds of this invention, the values of MIC (γ/ml.) of the compounds against various bacteria are shown in Table 1, in which the compounds of this invention used are shown by example numbers.
(10) Salmonella enteritidis

Another data set deals with Staphylococcus Onuma. The experiment in a line: MIC against bacteria (Table I), strain (18). The format is cell-based. As to conditions: Staphylococcus.
Excerpt: as §1
(18) Staphylococcus Onuma

For data set [1], the system named is Micrococcus flavus ATCC 10240. The experiment in a line: MIC against bacteria (Table I), strain (15). The format is cell-based. As to conditions: ATCC10240.
Excerpt: as §1
(15) Micrococcus flavus ATCC 10240

Data set [2] has as its system Staphylococcus aureus 209P. The experiment in a line: MIC against bacteria (Table I), strain (16). In kind it is cell-based. As to conditions: (16) Staphylococcus aureus 209P; read-out: MIC.
Excerpt: as §1
(16) Staphylococcus aureus 209P

The subject of data set [3] is Shigella flexneri 2a 1675. The experiment in a line: MIC against bacteria (Table I), strain (11). In kind it is cell-based. As to conditions: 2A1675; (11) Shigella flexneri 2a 1675; read-out: MIC.
Excerpt: as §1

Data set [4] relates to Psuedomonas ovalis IMA 1002. The experiment in a line: MIC against bacteria (Table I), strain (6). As to conditions: (6) Psuedomonas ovalis IMA 1002; read-out: MIC. In kind it is cell-based.
Excerpt: as §1
(6) Psuedomonas ovalis IMA 1002

For data set [5], the system named is Proteus mirabilis IXM OM-19. The experiment in a line: MIC against bacteria (Table I), strain (3). The format is cell-based. Particulars: IXMOM19; (3) Proteus mirabilis IXM OM-19; read-out: MIC.
Excerpt: as §1
(3) Proteus mirabilis IXM OM-19

Data set [6] has as its system Pseudomonas aeruginosa ATCC 8689. The experiment in a line: MIC against bacteria (Table I), strain (4). Particulars: ATCC8689; (4) Pseudomonas aeruginosa ATCC 8689; read-out: MIC. The format is cell-based.
Excerpt: as §1
(4) Pseudomonas aeruginosa ATCC 8689

For data set [7], the system named is Pseudomonas aeruginosa 99 (Gentamycin resistant). The experiment in a line: MIC against bacteria (Table I), strain (5). In kind it is cell-based. Particulars: (5) Pseudomonas aeruginosa 99 (Gentamycin resistant); read-out: MIC.
Excerpt: as §1
(5) Pseudomonas aeruginosa 99 (Gentamycin resistant)

A further data set concerns Salmonella typhi H901 W. The experiment in a line: MIC against bacteria (Table I), strain (9). In kind it is cell-based. Particulars: Salmonella enterica, TYPHI.
Excerpt: as §1
(9) Salmonella typhi H901 W

Data set [8] has as its system Klebsiella pneumoniae ATCC 10031. The experiment in a line: MIC against bacteria (Table I), strain (8). In kind it is cell-based. As to conditions: ATCC10031; (8) Klebsiella pneumoniae ATCC 10031; read-out: MIC.
Excerpt: as §1
(8) Klebsiella pneumoniae ATCC 10031

The next data set deals with Proteus vulgaris OXK US. The experiment in a line: MIC against bacteria (Table I), strain (1). In kind it is cell-based. Particulars: (1) Proteus vulgaris OXK US; read-out: MIC.
Excerpt: as §1
(1) Proteus vulgaris OXK US

The test system of data set [9] is Escherichia coli kauffmann 0-1. The experiment in a line: MIC against bacteria (Table I), strain (7). In kind it is cell-based. As to conditions: Escherichia coli.
Excerpt: as §1
(7) Escherichia coli kauffmann 0-1

Data set [10] deals with Bacillus subtilis ATCC 6633. The experiment in a line: MIC against bacteria (Table I), strain (14). In kind it is cell-based. As to conditions: ATCC6633; (14) Bacillus subtilis ATCC 6633; read-out: MIC.
Excerpt: as §1
(14) Bacillus subtilis ATCC 6633

Another data set has as its system Shigella sonnei II 37148. The experiment in a line: MIC against bacteria (Table I), strain (12). In kind it is cell-based. As to conditions: II37148; (12) Shigella sonnei II 37148; read-out: MIC.
Excerpt: as §1

The test system of data set [11] is Staphylococcus Shimanishi. The experiment in a line: MIC against bacteria (Table I), strain (17). In kind it is cell-based.
Excerpt: as §1
(17) Staphylococcus Shimanishi

The next data set deals with Proteus vulgaris 0X 19US. The experiment in a line: MIC against bacteria (Table I), strain (2). In kind it is cell-based. Particulars: 0X19US; (2) Proteus vulgaris 0X 19US; read-out: MIC.
Excerpt: as §1
(2) Proteus vulgaris 0X 19US

Data set [12] relates to Bacillus megatherium 10778. The experiment in a line: MIC against bacteria (Table I), strain (13). In kind it is cell-based. As to conditions: (13) Bacillus megatherium 10778; read-out: MIC.
Excerpt: as §1

Data set [13] can be described thus: Solubility of salts in water (Table 2). Particulars: disodium salt, water, showing pH 7.4; read-out: Solubility: disodium salt dissolved in water in an amount of. In kind it is physicochemical. The source says:
An advantage of the compounds of this invention is that the salts, for example, sodium salts of these compounds are readily soluble in water at pH of living bodies, which makes them suitable for injections at high concentration. The solubility of these compounds are illustrated in Table 2 together with a control example.

Data set [14] is described as follows: Residual antibacterial activity after incubation with 90% plasma (Table 4). Particulars: 90% rat plasma; for remaining at 0.25 h / remaining at 0.5 h / remaining at 1.5 h: 90% plasma; for remaining at 0.25 h: 15 minute; for remaining at 0.5 h: 30 minute; for remaining at 1.5 h: 90 minute; for Residual activity: 0 minute. The format is in vitro ADME, male Sprague-Dowley rat. The procedure:
(§2) The relation between the reaction period of time and the antibacterial activity (residual activity, %) when these compounds are incubated with the plasma and the liver homogenate of a male Sprague-Dowley rat is shown in Table 4. The residual antibacterial activity was measured by a thin-layer cup method according to Bacillus subtilis ATCC 6633.
A*Residual activity (%) when incubated with 90% plasma.

Data set [15] can be described thus: Residual antibacterial activity after incubation with 10% liver homogenate (Table 4). The format is in vitro ADME, male Sprague-Dowley rat. Particulars: 10% rat liver homogenate; for remaining at 0.25 h / remaining at 0.5 h / remaining at 1.5 h: 10% liver homogenate, read-out: Residual activity; for remaining at 0.25 h: 15 minute; for remaining at 0.5 h: 30 minute; for remaining at 1.5 h: 90 minute; for Residual activity: 0 minute. The procedure:
as §2
B*Residual activity (%) when incubated with 10% liver homogenate.

≈ marks a conversion by molar mass, not a printed value. Where two headings read alike, the source gives them in different places.

For orientation: MIC means the lowest concentration that inhibits growth of the organism. In general, solubility refers to the dissolved amount per volume that the medium holds. Take `O=C(O)CSc1cc(SCC2=C(C(=O)O)N3C(=O)[C@@H](NC(=O)[C@H](NC(=O)c4cnccc4O)c4ccccc4)[C@H]3SC2)ncn1` [Example 16]: the MIC in the data set on Salmonella enteritidis ((10) Salmonella enteritidis, read-out: MIC) came to 0.78 µg/mL (≈ 1.17 µM); against Staphylococcus Onuma, 6.25 µg/mL (≈ 9.35 µM); in [1] (Micrococcus flavus), 3.13 µg/mL (≈ 4.68 µM); in data set [2] it was 0.78 µg/mL (≈ 1.17 µM); in data set [3], 3.13 µg/mL (≈ 4.68 µM); in [4], 25 µg/mL (≈ 37.4 µM). Besides, the MIC was 0.19 µg/mL (≈ 0.284 µM) in data set [5]; 25 µg/mL (≈ 37.4 µM) in data set [6]; 25 µg/mL (≈ 37.4 µM) in [7]; 1.56 µg/mL (≈ 2.33 µM) against Salmonella typhi H901 W; 12.5 µg/mL (≈ 18.7 µM) in data set [8]; under 0.09 µg/mL in the data set on Proteus vulgaris OXK US. Besides, the MIC in [9] was 6.25 µg/mL (≈ 9.35 µM); in [10], 0.19 µg/mL (≈ 0.284 µM); in the data set with Shigella sonnei II 37148, 6.25 µg/mL (≈ 9.35 µM); in data set [11] (Staphylococcus) it was 6.25 µg/mL (≈ 9.35 µM); with Proteus vulgaris 0X 19US, under 0.09 µg/mL; in data set [12], 0.39 µg/mL (≈ 0.583 µM). In addition, the solubility in data set [13] is over 200 mg/mL.
Regarding `O=C(Cc1cccs1)N[C@@H]1C(=O)N2C(C(=O)[O-])=C(C[n+]3ccccc3)CS[C@H]12` [Cephaloridine, reference compound], in data set [14], the remaining at 0.25 h stood at 97.2%, the remaining at 0.5 h was determined as 89.5%, the remaining at 1.5 h stood at 72.2% and the Residual activity came out at 100%. Besides, in [15], the remaining at 0.25 h amounted to 82.3%, the remaining at 0.5 h turned out to be 86%, the remaining at 1.5 h amounted to 91.1% and the Residual activity is 100%.
Consider `O=C(O)C1=C(CSc2nnc(SCCS(=O)(=O)O)s2)CS[C@@H]2[C@H](NC(=O)[C@H](NC(=O)c3cnccc3O)c3ccccc3)C(=O)N12` [Example 9, 7-[D-α-(4-hydroxynicotinoylamido)-α-phenylacetamido]-3-(5-sulfoethylthio-1,3,4-thiadiazol-2-yl)thiomethyl-Δ^3-cephem-4-carboxylic acid], for which the MIC against Salmonella enteritidis (ENTERITIDIS) was determined as 0.39 µg/mL (≈ 0.538 µM); against Staphylococcus Onuma, 6.25 µg/mL (≈ 8.62 µM); in data set [1] ((15) Micrococcus flavus ATCC 10240, read-out: MIC), 3.13 µg/mL (≈ 4.32 µM); in data set [2], 0.78 µg/mL (≈ 1.08 µM); in [3] it was 1.56 µg/mL (≈ 2.15 µM); in [4] it was 12.5 µg/mL (≈ 17.2 µM). In addition, the MIC stood at 0.39 µg/mL (≈ 0.538 µM) in data set [5]; 12.5 µg/mL (≈ 17.2 µM) in data set [6]; 12.5 µg/mL (≈ 17.2 µM) in data set [7]; 1.56 µg/mL (≈ 2.15 µM) against Salmonella typhi H901 W; 3.13 µg/mL (≈ 4.32 µM) in data set [8]; 0.19 µg/mL (≈ 0.262 µM) in the data set on Proteus vulgaris OXK US. Moreover, the MIC worked out at 3.13 µg/mL (≈ 4.32 µM) in data set [9]; 0.39 µg/mL (≈ 0.538 µM) in data set [10]; 6.25 µg/mL (≈ 8.62 µM) with Shigella sonnei II 37148; 3.13 µg/mL (≈ 4.32 µM) in data set [11] ((17) Staphylococcus Shimanishi, read-out: MIC); 0.39 µg/mL (≈ 0.538 µM) in the data set with Proteus vulgaris 0X 19US; 0.39 µg/mL (≈ 0.538 µM) in data set [12]. Further, the results for the remaining at 0.25 h in data set [14] and in data set [15] were 103% and 100%, respectively. The remaining at 0.5 h in data set [14] was determined as 92%; in data set [15], 100%. The remaining at 1.5 h in data set [14] was determined as 100%; in [15] it was 102%. Moreover, the Residual activity in data set [14] and in data set [15] was 100% throughout.
